# Reference: patent US5840728A, “Conformationally locked nucleoside analogs as antiherpetic agents” (priority 1997, dated 1998)
# Where two headings read alike, the source gives them in different places.
# Columns and labels:
# [1] = tested on: HCMV (human cytomegalovirus); assay: microbe, parasite or virus in culture; format: cell-based; conditions: for EC50: Human betaherpesvirus 5, Table 5, HCMV, plaque reduction assay
# Source text: | ^f plaque reduction assay.
# [2] = tested on: HCMV (human cytomegalovirus); assay: microbe, parasite or virus in culture; format: cell-based
# [3] = Cytotoxicity in growing (rapidly dividing) HFF; format: cell-based, human; conditions: human, growing hff cells, read-out: CC50
# [4] = tested on: Growing HFF; assay: Cytotoxicity in growing (rapidly dividing) HFF; format: cell-based, human; conditions: in words; rapidly proliferating vs stationary cells
# [5] = Cytotoxicity in EBV host cells (Daudi); format: cell-based; conditions: human
# [6] = tested on: HSV-1 (herpes simplex type 1); assay: microbe, parasite or virus in culture; conditions: for EC50: HSV-1; for activity against HSV-1: in words
# Source text: (§1) Compounds 25 and 26 are (S)-methanocarba-T and (±)-(carba-T), respectively. (±)-carba-T was kindly provided by Dr. Y. Fulmer Shealy, Southern Research Institute, Birmingham, Ala. [drawing 5]
# [7] = tested on: HSV-2 (herpes simplex type 2); assay: microbe, parasite or virus in culture; conditions: for EC50: HSV-2; for activity against HSV-2: in words
# Source text: as §1
# [8] = tested on: EBV (Epstein-Barr virus); assay: microbe, parasite or virus in culture; format: cell-based; conditions: for EC50: human gammaherpesvirus 4, read-out: EC50; for anti-EBV activity relative to acyclovir / EC50: EBV; for activity against EBV: in words
# Source text: as §1
# [9] = Cytotoxicity in host cells / stationary cells (HFF); format: cell-based, human; conditions: human, hff cells
# Source text: (§2) ^d CC50 = cytotoxic concentration in μg/mL that produces 50%
# [10] = tested on: S-adenosylhomocysteine hydrolase (AdoHcy-ase); assay: Inhibition of S-adenosylhomocysteine hydrolase; format: biochemical
# [11] = Adenosine deaminase studies (deamination by ADA); format: biochemical; conditions: adenosine deaminase; 50 μM compound; 1.0 unit ADA; 37° C., pH 7.1; read-out: t1/2 of deamination
# Experimental: (§3) At timed intervals, 50 µl aliquots were quenched with 450 μl water containing the ADA inhibitor deoxycoformycin (4 μM). Hydrolysis kinetics of 4 were followed by high performance liquid chromatography (HPLC) with on-the-fly UV spectral characterization of all chromatographic components. […] The hydrolysis rate constant (k/ADA) and t^1/2 of decay or formation were obtained using GraphPAD Inpiot curve fitting program.
# [12] = tested on: adenosine deaminase (ADA); assay: Adenosine deaminase studies (deamination by ADA); format: biochemical
# Experimental: as §3
# [13] = tested on: herpes viruses; assay: Antiherpetic activity, overall; format: cell-based; conditions: in words
# [14] = tested on: HFF (human foreskin fibroblasts); assay: Cytotoxicity in host cells / stationary cells (HFF); format: cell-based; conditions: Table 5; host cell not given; listed as (N)-DMC-G
# Source text: as §2
# [15] = Human betaherpesvirus 5, Table 5, HCMV, read-out: EC50
# [16] = Human alphaherpesvirus 1, Table 5
# [17] = Human alphaherpesvirus 2, Table 5
structure (smiles),measurement,setting,value
"Nc1ncnc2c1ncn2[C@H]1C[C@H](O)[C@]2(CO)C[C@H]12 [Compound 4, (1 R,2S,4S,5S)-1-Hydroxymethyl-2-hydroxM-4-(6-amino-9-purinyl)bicyclo[3.1.0]hexane]",EC50,[1]; read-out: EC50,5.6 µg/mL
same,SI (CC50/EC50),[1]; human foreskin fibroblasts,> 17.9
same,SI (CC50/EC50),[2],> 32.2
same,potency against HCMV relative to gancyclovir,[2]; HCMV,only ten fold less potent than gancyclovir
same,antiviral selectivity,"[2]; HCMV, compared with gancyclovir, in words",superibor to that of gancyclovir
same,EC50,"[2]; Human betaherpesvirus 5, Table 3, HCMV, HFF, read-out: EC50",3.1 µg/mL
same,EC50,[2]; [15],3.1 µg/mL
same,EC50,"[2]; Human betaherpesvirus 5, text, HCMV, read-out: EC50",3.1 µg/mL
same,activity against HCMV,"[2]; in words, listed as (N)-methanocarba-A","exhibited antiviral effects against Human CMV, EBV and HSV-2"
same,CC50,"[3]; Table 3, Growing HFF",> 100 µg/mL
same,cytotoxicity to rapidly dividing cells,[4],equally non-toxic to rapidly proliferating cells and stationary cells
same,CC50,"[5]; Table 3, Daudi",> 100 µg/mL
same,SI (CC50/EC50),[6],> 1.4
same,EC50,"[6]; Human alphaherpesvirus 1, Table 3, HFF",72 µg/mL
same,EC50,[6]; [16],72 µg/mL
same,activity against HSV-1,[6],weak level of activity
same,SI (CC50/EC50),[7],> 7.2
same,EC50,"[7]; Human alphaherpesvirus 2, Table 3, HFF",13.9 µg/mL
same,EC50,[7]; [17],13.9 µg/mL
same,activity against HSV-2,[7]; listed as (N)-methanocarba-A,"exhibited antiviral effects against Human CMV, EBV and HSV-2"
same,SI (CC50/EC50),[8],> 66.7
same,anti-EBV activity relative to acyclovir,[8],only fifteen fold weaker than acyclovir
same,EC50,[8],1.5 µg/mL
same,EC50,"[8]; Table 3, Daudi, viral capsid antigen",1.5 µg/mL
same,activity against EBV,[8]; listed as (N)-methanocarba-A,"exhibited antiviral effects against Human CMV, EBV and HSV-2"
same,CC50,"[9]; Table 3, HFF",> 100 µg/mL
same,CC50,"[9]; Table 5, host cell not given",> 100 µg/mL
same,inhibition,[10]; at 100 μM,20%
same,inhibition,[10]; at 100 FM concentration (so in the source),20%
same,activity against AdoHcy-ase,[10]; in words,very low
same,half-life at 50 µM,[11],3.2 min
same,time to complete deamination,"[12]; 50 μM compound, 1.0 unit ADA, 37° C., pH 7.1",30 min
same,deamination by ADA,[12]; in words,complete deamination
Cc1cn([C@H]2C[C@H](O)[C@]3(CO)C[C@H]23)c(=O)[nH]c1=O [Compound 20],CC50,[3]; rapidly dividing cells,32.9 µg/mL
same,CC50,"[5]; Table 4, EBV line, host cell not given",> 100 µg/mL
same,SI (CC50/EC50),[6],> 2000
same,EC50,"[6]; Human alphaherpesvirus 1, Table 4, plaques reduced by 50%",0.01 µg/mL
same,activity against HSV-1,[6],strong activity
same,activity against HSV-1,[6]; listed as N-methanocarba-T,"effective against HSV-1, HSV-2 and EBV"
same,SI (CC50/EC50),[7],> 167
same,EC50,"[7]; Human alphaherpesvirus 2, Table 4, plaques reduced by 50%",0.12 µg/mL
same,activity against HSV-2,[7],strong activity
same,activity against HSV-2,[7]; listed as N-methanocarba-T,"effective against HSV-1, HSV-2 and EBV"
same,SI (CC50/EC50),[8],> 222
same,anti-EBV activity relative to acyclovir,[8],not as strong as ACV
same,EC50,[8]; Table 4,0.45 µg/mL
same,activity against EBV,[8],significant anti-EBV activity
same,activity against EBV,[8]; listed as N-methanocarba-T,"effective against HSV-1, HSV-2 and EBV"
same,CC50,"[9]; Table 4, HSV-1 and HSV-2 lines, host cell not given",> 20 µg/mL
same,CC50,[9]; stationary cells,> 100 µg/mL
same,activity relative to acyclovir,[13]; HSV-1 and HSV-2,stronger than observed with acyclovir
"O=c1ccn([C@H]2C[C@H](O)[C@]3(CO)C[C@H]23)c(=O)[nH]1 [Compound 21, (1R,2S,4S,5S)-1-(Hydroxymethyl)-2-hydroxy-4-(2,4-(1H,3H)-dioxopvrimidin-1-yl)bicyclor3.1.Olhexane]",SI (CC50/EC50),[2],1
same,EC50,[2]; [15],> 100 µg/mL
same,activity against HCMV,[2]; in words,inactive against all three viruses
same,SI (CC50/EC50),[6],1
same,EC50,[6]; [16],> 100 µg/mL
same,activity against HSV-1,[6],inactive against all three viruses
same,SI (CC50/EC50),[7],1
same,EC50,[7]; [17],> 100 µg/mL
same,activity against HSV-2,[7],inactive against all three viruses
same,CC50,"[9]; Table 5, host cell not given",> 100 µg/mL
Nc1ccn([C@H]2C[C@H](O)[C@]3(CO)C[C@H]23)c(=O)n1 [Compound 22],SI (CC50/EC50),[2],< 2.2
same,EC50,[2]; [15],> 4 µg/mL
same,activity against HCMV,[2]; in words,active against HCMV
same,SI (CC50/EC50),[6],486
same,EC50,[6]; [16],0.14 µg/mL
same,activity against HSV-1,[6],very active against HSV-1
same,SI (CC50/EC50),[7],< 4.8
same,EC50,[7]; [17],> 20 µg/mL
same,activity against HSV-2,[7],Little activity
Nc1nc2c(ncn2[C@H]2C[C@H](O)[C@]3(CO)C[C@H]23)c(=O)[nH]1 [Compound 24],SI (CC50/EC50),[2],< 3.2
same,EC50,[2]; [15],> 20 µg/mL
same,activity against HCMV,[2]; in words,little activity against HCMV
same,SI (CC50/EC50),[6],> 25
same,EC50,[6]; [16],4 µg/mL
same,activity against HSV-1,[6],active against HSV-1 and HSV-2
same,SI (CC50/EC50),[7],> 10.1
same,EC50,[7]; [17],9.9 µg/mL
same,activity against HSV-2,[7],active against HSV-1 and HSV-2
same,CC50,[14],64.3 µg/mL
same,CC50,"[9]; Table 5, host cell not given",> 100 µg/mL
"Cc1cn([C@@]23C[C@H](O)[C@@H](CO)[C@@H]2C3)c(=O)[nH]c1=O [Compound 25, (S)-methanocarba-T, reference compound]",CC50,[3]; rapidly dividing cells,> 100 µg/mL
same,SI (CC50/EC50),[6],1
same,SI (CC50/EC50),[7],1
same,CC50,[9]; stationary cells,> 100 µg/mL
same,antiherpetic activity,[13],did not exhibit antiherpetic activity
"Nc1nc(O)c2ncn(COC(CO)CO)c2n1 [GCV, gancyclovir]",EC50,"[1]; control, read-out: Control EC50",0.2 µg/mL
same,EC50,"[2]; Human betaherpesvirus 5, Table 3, HCMV, HFF, positive control, read-out: Positive Control EC50",0.3 µg/mL
same,CC50,[3]; rapidly dividing cells,40 µg/mL
same,cytotoxicity to rapidly dividing cells,[4],increased cytotoxicity towards rapidly dividing cells
